ChEMBL document CHEMBL5137093, “Improving Drug Delivery While Tailoring Prodrug Activation to Modulate Cmax and Cmin by Optimization of (Carbonyl)oxyalkyl Linker-Based Prodrugs of Atazanavir” (J Med Chem, 2022)
≈ marks a conversion by molar mass, not a printed value.

How the values were obtained:
[1] = Aqueous stability of the compound in HCL at pH 1 assessed as compound half life measured after 24 hrs by UPLC analysis; assay type: physicochemical; settings: for half-life: aqueous HCl, pH 1; for t1/2: buffer, pH 1, 24 h, 24 h
[2] = Cmax in Sprague-Dawley rat at 3 ml/kg,po measured upto 24 hrs by UPLC-MS/MS analysis; assay type: ADME; set-up: dose 3 ml/kg, time < 24 hrs, route po; settings: in vivo
[3] = Aqueous solubility of compound at pH 4 by UPLC analysis; assay type: physicochemical
[4] = Aqueous stability of the compound in acetate buffer at pH 4 assessed as compound half life measured after 24 hrs by UPLC analysis; assay type: physicochemical; settings: for half-life: acetate buffer, pH 4; for t1/2: buffer, pH 4, 24 h, 24 h
[5] = Aqueous stability of the compound in phosphate buffer at pH 6.5 assessed as compound half life measured after 24 hrs by UPLC analysis; assay type: physicochemical; settings: for t1/2: buffer, pH 6.5, 24 h, 24 h; for half-life: phosphate buffer, pH 6.5
[6] = Tmax in Sprague-Dawley rat at 3 ml/kg,po measured upto 24 hrs by UPLC-MS/MS analysis; assay type: ADME; settings: in vivo
[7] = Fold ratio of total AUC of Atazanavir in Sprague-Dawley rat at 3 ml/kg,po measured upto 24 hrs by UPLC-MS/MS analysis; assay type: ADME; settings: in vivo
[8] = AUClast in Sprague-Dawley rat at 3 ml/kg,po measured upto 24 hrs by UPLC-MS/MS analysis; assay type: ADME; set-up: time < 24 hrs, dose 3 ml/kg, route po; settings: in vivo; for AUClast: 24 h; for AUC(0-t) at 24 h: Sprague-Dawley, 3 ml/kg
[9] = Relative Cmax ratio of Atazanavir in Sprague-Dawley rat at 3 ml/kg,po measured upto 24 hrs by UPLC-MS/MS analysis; assay type: ADME; settings: in vivo
[10] = Ratio of AUC of Atazanavir in Sprague-Dawley rat at 3 ml/kg,po measured upto 24 hrs by UPLC-MS/MS analysis; assay type: ADME; settings: in vivo
[11] = Relative AUC ratio of Atazanavir in Sprague-Dawley rat at 3 ml/kg,po measured upto 24 hrs by UPLC-MS/MS analysis; assay type: ADME; settings: in vivo
[12] = Aqueous solubility of compound at pH 1 by UPLC analysis; assay type: physicochemical
[13] = Ratio of Cmax/Cmin of Atazanavir in Sprague-Dawley rat at 3 ml/kg,po measured after 24 hrs by UPLC-MS/MS analysis; assay type: ADME; settings: in vivo
[14] = aqueous medium, read-out: solubility

| half-life [1] | Cmax ([2]; 24 h) | solubility [3, 14] | half-life [4] | t1/2 [5] | Tmax ([6]; Sprague-Dawley, read-out: Tmax) | Ratio [7] | AUClast [8] | Ratio [9] | Ratio [10] | Ratio [11] | solubility [12, 14] | solubility ([3]; buffer) | t1/2 [4] | solubility ([12]; buffer) | half-life [5] | Ratio [13] | Tmax ([6]; po, 24 h) | SMILES | further results |
| --- | --- | --- | --- | --- | --- | --- | --- | --- | --- | --- | --- | --- | --- | --- | --- | --- | --- | --- | --- |
| > 500 h | 805 nM | > 1500 µg/mL | > 500 h | 27.3 h | 0.3 h | 4.6 | 0.724 µM·h | 3.8 | 0.68 | 2.8 | > 2100 µg/mL |  |  |  |  |  |  | CCC(C)C(OC(=O)O[C@@H](CN(Cc1ccc(-c2ccccn2)cc1)NC(=O)[C@@H](NC(=O)OC)C(C)(C)C)[C@H](Cc1ccccc1)NC(=O)[C@@H](NC(=O)OC)C(C)(C)C)OC(=O)[C@@H](N)C(C)C (mixture of isomers) |  |
|  |  |  |  | 11.4 h |  |  |  |  |  |  |  | > 2200 µg/mL | 376.3 h | > 3000 µg/mL |  |  |  | COC(=O)N[C@H](C(=O)N[C@@H](Cc1ccccc1)[C@H](CN(Cc1ccc(-c2ccccn2)cc1)NC(=O)[C@@H](NC(=O)OC)C(C)(C)C)OC(=O)OC(OC(=O)CCN)C(C)C)C(C)(C)C (stereo in doubt; 3aa) | t1/2 [1]: 376.3 h |
| > 500 h |  | > 910 µg/mL | 376 h |  |  |  |  |  |  |  |  |  |  | > 960 µg/mL | 8.9 h |  |  | COC(=O)N[C@H](C(=O)N[C@@H](Cc1ccccc1)[C@H](CN(Cc1ccc(-c2ccccn2)cc1)NC(=O)[C@@H](NC(=O)OC)C(C)(C)C)OC(=O)OC(OC(=O)C[C@H](N)Cc1cc(F)c(F)cc1F)C(C)C)C(C)(C)C (stereo in doubt; 3ab) |  |
|  |  |  |  | 7.4 h | 3 h | 27 |  | 1.2 | 3.4 | 6.1 |  | 960 µg/mL (≈ 926 µM) | 334.3 h | > 2400 µg/mL |  | 36.4 |  | COC(=O)N[C@H](C(=O)N[C@@H](Cc1ccccc1)[C@H](CN(Cc1ccc(-c2ccccn2)cc1)NC(=O)[C@@H](NC(=O)OC)C(C)(C)C)OC(=O)OC(OC(=O)C[C@H](N)Cc1cc(F)c(F)cc1F)C(C)C)C(C)(C)C (stereo in doubt; 3ac) | Cmax ([2]; Sprague-Dawley, 3 ml/kg): 989 nM; AUC(0-t) at 24 h [8]: 8.01 µM·h |
| 158 h | 34 nM | > 2400 µg/mL | 41.8 h |  | 0.4 h | 0.9 | 0.019 µM·h | 0.9 | 0.06 | 0.8 | > 1600 µg/mL |  |  |  | 3.6 h |  |  | COC(=O)N[C@H](C(=O)N[C@@H](Cc1ccccc1)[C@H](CN(Cc1ccc(-c2ccccn2)cc1)NC(=O)[C@@H](NC(=O)OC)C(C)(C)C)OC(=O)OC(OC(=O)[C@H](C)N)C(C)C)C(C)(C)C (stereo in doubt; 3p) |  |
|  | 1900 nM |  |  | 2.7 h |  | 7.3 | 2.129 µM·h | 2.3 | 3.09 | 1.8 |  | > 1800 µg/mL | 30.4 h | > 1700 µg/mL |  | 1505 | 0.3 h | COC(=O)N[C@H](C(=O)N[C@@H](Cc1ccccc1)[C@H](CN(Cc1ccc(-c2ccccn2)cc1)NC(=O)[C@@H](NC(=O)OC)C(C)(C)C)OC(=O)OC(OC(=O)[C@H](C)N)C(C)C)C(C)(C)C (stereo in doubt; 3q) | t1/2 [1]: 125.4 h |
| > 500 h |  | > 2500 µg/mL | > 500 h | 10.6 h |  | 3.6 |  | 3.4 | 0 | 3.6 | > 2600 µg/mL |  |  |  |  | 761.7 |  | COC(=O)N[C@H](C(=O)N[C@@H](Cc1ccccc1)[C@H](CN(Cc1ccc(-c2ccccn2)cc1)NC(=O)[C@@H](NC(=O)OC)C(C)(C)C)OC(=O)OC(OC(=O)[C@@H](N)C(C)C)C(C)C)C(C)(C)C (stereo in doubt; 3r) |  |
|  |  | > 1100 µg/mL |  | 12 h |  | 1.3 |  | 2.1 | 0 | 1.3 | > 1400 µg/mL |  | 136.8 h |  |  | 304.4 |  | COC(=O)N[C@H](C(=O)N[C@@H](Cc1ccccc1)[C@H](CN(Cc1ccc(-c2ccccn2)cc1)NC(=O)[C@@H](NC(=O)OC)C(C)(C)C)OC(=O)OC(OC(=O)[C@@H](N)CC(C)C)C(C)C)C(C)(C)C (stereo in doubt; 3t) | t1/2 [1]: > 500 h |
|  |  |  |  | 5.9 h | 0.3 h | 2.4 |  | 2.9 | 0.13 | 2.1 |  | > 1600 µg/mL | 59 h | > 1480 µg/mL |  |  |  | COC(=O)N[C@H](C(=O)N[C@@H](Cc1ccccc1)[C@H](CN(Cc1ccc(-c2ccccn2)cc1)NC(=O)[C@@H](NC(=O)OC)C(C)(C)C)OC(=O)OC(OC(=O)[C@@H](N)CC(C)C)C(C)C)C(C)(C)C (stereo in doubt; 3u) | t1/2 [1]: 136.8 h; Cmax ([2]; Sprague-Dawley, 3 ml/kg): 182 nM; AUC(0-t) at 24 h [8]: 0.105 µM·h |
| > 500 h |  | > 1500 µg/mL | 334 h |  | 1.3 h | 8.7 |  | 6.9 | 0 | 8.7 | > 1700 µg/mL |  |  |  | 10.1 h | 1309.3 |  | COC(=O)N[C@H](C(=O)N[C@@H](Cc1ccccc1)[C@H](CN(Cc1ccc(-c2ccccn2)cc1)NC(=O)[C@@H](NC(=O)OC)C(C)(C)C)OC(=O)OC(OC(=O)CCN)C(C)C)C(C)(C)C (stereo in doubt; 3z) | Cmax ([2]; Sprague-Dawley, 3 ml/kg): 6 nM; AUC(0-t) at 24 h [8]: 0.007 µM·h |
|  | 1840 nM |  |  | 13.4 h |  | 7.5 | 1.658 µM·h | 3.7 | 1.34 | 3.2 |  | > 2600 µg/mL | 334.4 h |  |  | 1631.7 |  | CCC(C)C(OC(=O)O[C@@H](CN(Cc1ccc(-c2ccccn2)cc1)NC(=O)[C@@H](NC(=O)OC)C(C)(C)C)[C@H](Cc1ccccc1)NC(=O)[C@@H](NC(=O)OC)C(C)(C)C)OC(=O)[C@@H](N)C(C)C (stereo in doubt; 4k) |  |
|  | 27 nM |  |  | 23.7 h |  | 2 | 0.006 µM·h | 1.9 | 0.01 | 2 |  | > 1000 µg/mL |  | > 1200 µg/mL |  | 721.4 | 0.3 h | COC(=O)N[C@H](C(=O)N[C@@H](Cc1ccccc1)[C@H](CN(Cc1ccc(-c2ccccn2)cc1)NC(=O)[C@@H](NC(=O)OC)C(C)(C)C)OC(=O)OC(OC(=O)[C@@H](N)C(C)C)C(C)(C)C)C(C)(C)C (stereo in doubt; 4m) |  |
|  | 395 nM |  |  | 12.7 h |  | 2.1 | 0.406 µM·h | 1.4 | 0.98 | 1.1 |  | > 1100 µg/mL | > 500 h | > 2000 µg/mL |  |  | 0.3 h | COC(=O)N[C@H](C(=O)N[C@@H](Cc1ccccc1)[C@H](CN(Cc1ccc(-c2ccccn2)cc1)NC(=O)[C@@H](NC(=O)OC)C(C)(C)C)OC(=O)OC(OC(=O)[C@@H](N)C(C)C)C1CCCCC1)C(C)(C)C (stereo in doubt; 4o) |  |
| > 500 h |  | > 1400 µg/mL | 376 h |  |  | 6 | 0.262 µM·h | 4.7 | 0.13 | 5.3 | > 2500 µg/mL |  |  |  | 4.7 h | 364.4 | 0.3 h | CN[C@H](C(=O)OC(OC(=O)O[C@@H](CN(Cc1ccc(-c2ccccn2)cc1)NC(=O)[C@@H](NC(=O)OC)C(C)(C)C)[C@H](Cc1ccccc1)NC(=O)[C@@H](NC(=O)OC)C(C)(C)C)C(C)C)C(C)C (stereo in doubt; 5e) | Cmax ([2]; Sprague-Dawley, 3 ml/kg): 342 nM |
|  | 382 nM |  |  | 2.87 h |  | 7 | 0.996 µM·h | 2.1 | 0.59 | 4.4 |  | > 1900 µg/mL | > 500 h | > 2000 µg/mL |  | 194.1 | 0.7 h | CN[C@H](C(=O)OC(OC(=O)O[C@@H](CN(Cc1ccc(-c2ccccn2)cc1)NC(=O)[C@@H](NC(=O)OC)C(C)(C)C)[C@H](Cc1ccccc1)NC(=O)[C@@H](NC(=O)OC)C(C)(C)C)C(C)C)C(C)C (stereo in doubt; 5f) |  |
| > 500 h |  | > 1200 µg/mL | 232 h |  |  |  |  |  |  |  | > 2200 µg/mL |  |  |  | 6.1 h |  |  | COC(=O)N[C@H](C(=O)N[C@@H](Cc1ccccc1)[C@H](CN(Cc1ccc(-c2ccccn2)cc1)NC(=O)[C@@H](NC(=O)OC)C(C)(C)C)OC(=O)OC(OC(=O)[C@@H](NC(=O)[C@H](N)C(C)C)C(C)C)C(C)C)C(C)(C)C (stereo in doubt; 6g) |  |
